Our source for the melting point values is patent US8802678B2, “Carbonylated (aza) cyclohexanes as dopamine D3 receptor ligands” (Bioprojet, priority 2006, dated 2014).

For `CCc1cccc(N2CCN(CC[C@H]3CC[C@H](NC(=O)CCCC#N)CC3)CC2)c1.Cl`, the melting point came to 205 °C.
Consider `N#CCC(=O)N[C@H]1CC[C@H](CCN2CC=C(c3cccc(C(F)(F)F)c3)CC2)CC1`, for which the melting point was 149 °C.
As for `N#CCCC(=O)N[C@H]1CC[C@H](CCN2CCN(c3cc(F)cc(Cl)c3)CC2)CC1` [Example 743, N-(4-{2-[4-(3-Chloro-5-fluorophenyl)piperazin-1-yl]ethyl}cyclohexyl)-3-cyanopropanamide], the figure is 148 °C; as for `Cc1ccc(Cl)c(N2CCN(CC[C@H]3CC[C@H](NC(=O)CC#N)CC3)CC2)c1` [Example 227, N-(4-{2-[4-(2-Chloro-5-methylphenyl)piperazin-1-yl]ethyl}cyclohexyl)-2-cyanoacetamide], 174 °C.
As for `CCOCC(=O)N[C@H]1CC[C@H](CCN2CCN(c3ccc(OC)cc3)CC2)CC1` [Example 572, 2-Ethoxy-N-(4-{2-[4-(4-methoxyphenyl)piperazin-1-yl]ethyl}cyclohexyl)acetamide], the figure is 132 °C; as for `CCOCC(=O)N[C@H]1CC[C@H](CCN2CC=C(c3ccc(F)cc3)CC2)CC1`, 122 °C; as for `N#CCC(=O)N[C@H]1CC[C@H](CCN2CCN(c3ccc4c(c3)OCO4)CC2)CC1` [Example 315, N-{4-[2-(4-Benzo[1,3]dioxol-5-ylpiperazin-1-yl)ethyl]cyclohexyl}-2-cyanoacetamide], 226 °C.
As for `Cc1cc(C)cc(C2=CCN(CC[C@H]3CC[C@H](NC(=O)CCCC#N)CC3)CC2)c1`, the melting point was 166 °C.
As for `Cc1ccc(F)c(N2CCN(CC[C@H]3CC[C@H](NC(=O)CCCC#N)CC3)CC2)c1` [Example 440, 4-Cyano-N-(4-{2-[4-(2-fluoro-5-methylphenyl)piperazin-1-yl]ethyl}cyclohexyl)butanamide], the figure is 156 °C; as for `CC(=O)CN1CCC(CCN2CCN(c3cc(Cl)ccc3Cl)CC2)CC1.Cl.Cl`, 172 °C.
In turn, `N#CCC(=O)N[C@H]1CC[C@H](CCN2CCc3cc(C#N)ccc3C2)CC1` [Example 559, 2-Cyano-N-{4-[2-(6-cyano-3,4-dihydro-1H-isoquinolin-2-yl)ethyl]cyclohexyl}acetamide] came in with a melting point of 206 °C.
The result for `COCC(=O)N[C@H]1CC[C@H](CCN2CCN(c3cccc(C)c3C#N)CC2)CC1` [Example 49, N-(4-{2-[4-(2-Cyano-3-methylphenyl)piperazin-1-yl]ethyl}cyclohexyl)-2-methoxyacetamide] reads 136 °C.
`O=C(N[C@H]1CC[C@H](CCN2CCN(c3cc(F)c(F)cc3F)CC2)CC1)C1=CCCC1` [Example 523, Cyclopent-1-enecarboxylic acid (4-{2-[4-(2,4,5-trifluorophenyl)piperazin-1-yl]ethyl}cyclohexyl) amide] showed a melting point of 199 °C.
Regarding `O=C(CC1CC=CC1)N[C@H]1CC[C@H](CCN2CCN(c3ccccc3F)CC2)CC1` [Example 387], the melting point worked out at 188 °C.
`CC(=O)CN1CCC(CCN2CCN(c3cccc(F)c3)CC2)CC1.Cl.Cl`: the melting point was found to be 268 °C.
In the case of `N#CCCCC(=O)N[C@H]1CC[C@H](CCN2CC=C(c3cccc(C(F)(F)F)c3F)CC2)CC1`, the melting point is 130 °C.
With `COCC(=O)N[C@H]1CC[C@H](CCN2CCN(c3cc(F)c(F)c(F)c3)CC2)CC1` [Example 542, 2-Methoxy-N-(4-{2-[4-(3,4,5-trifluorophenyl)piperazin-1-yl]ethyl}cyclohexyl)acetamide], the melting point was determined as 153 °C.
As for `N#CCC(=O)N[C@H]1CC[C@H](CCN2CCN(c3ccc(F)c(C#N)c3)CC2)CC1` [Example 660, 2-Cyano-N-(4-{2-[4-(3-cyano-4-fluorophenyl)piperazin-1-yl]ethyl}cyclohexyl)acetamide], the figure is 185 °C; as for `Cl.Cl.NC(=O)CN1CCC(CCN2CCN(c3cccc(C(F)(F)F)c3)CC2)CC1`, 120 °C; as for `CC(=O)CN1CCC(CCN2CCN(c3ccc4scnc4c3)CC2)CC1` [Example 264, 1-{4-[2-(4-Benzothiazol-5-ylpiperazin-1-yl)ethyl]piperidin-1-yl}propan-2-one], 110 °C.
In turn, `O=C(N[C@H]1CC[C@H](CCN2CCN(c3cc(F)c(F)c(F)c3)CC2)CC1)C1CC=CC1` [Example 466, Cyclopent-3-enecarboxylic acid (4-{2-[4-(3,4,5-trifluorophenyl)piperazin-1-yl]ethyl}cyclohexyl) amide] had a melting point of 224 °C.
As for `Cc1cc(F)cc(N2CCN(CC[C@H]3CC[C@H](NC(=O)CC#N)CC3)CC2)c1` [Example 725, 2-Cyano-N-(4-{2-[4-(3-fluoro-5-methylphenyl)piperazin-1-yl]ethyl}cyclohexyl)acetamide], the figure is 180 °C; as for `CC(=O)CN1CCC(CCN2CCN(c3cccc(Cl)c3F)CC2)CC1.Cl.Cl`, 270 °C; as for `CC(=O)CN1CCC(CCN2CCN(c3ccc(F)c(C)c3)CC2)CC1.Cl.Cl`, 258 °C.
In turn, `CC(=O)CN1CCC(CCN2CCN(c3cccc(C(C)O)c3)CC2)CC1` (stereo not drawn) [Example 606, 1-[4-(2-{4-[3-(1-Hydroxyethyl)phenyl]piperazin-1-yl}ethyl)piperidin-1-yl]propan-2-one] showed a melting point of 97 °C.
In turn, `COc1c(Cl)cccc1N1CCN(CC[C@H]2CC[C@H](NC(=O)CC#N)CC2)CC1` [Example 215, N-(4-{2-[4-(3-Chloro-2-methoxyphenyl)piperazin-1-yl]ethyl}cyclohexyl)-2-cyanoacetamide] gave a melting point of 122 °C.
Compound `CCc1cccc(C2=CCN(CC[C@H]3CC[C@H](NC(=O)CCCC#N)CC3)CC2)c1` returned a melting point of 147 °C.
Compound `COCC(=O)N[C@H]1CC[C@H](CCN2CCN(c3ccccc3Cl)CC2)CC1` [Example 129, N-(4-{2-[4-(2-Chlorophenyl)-piperazin-1-yl]ethyl}cyclohexyl)-2-methoxyacetamide] displayed a melting point of 100 °C.
For the compound `Cc1ccc(N2CCN(CC[C@H]3CC[C@H](NC(=O)C4=CCCC4)CC3)CC2)cc1F` [Example 537, Cyclopent-1-enecarboxylic acid (4-{2-[4-(3-fluoro-4-methylphenyl)piperazin-1-yl]ethyl}cyclohexyl) amide], the melting point turned out to be 220 °C.
For the compound `Cc1ccc(Cl)cc1N1CCN(CC[C@H]2CC[C@H](NC(=O)CCC#N)CC2)CC1` [Example 257, N-(4-{2-[4-(5-Chloro-2-methylphenyl)piperazin-1-yl]ethyl}cyclohexyl)-3-cyanopropanamide], the melting point lay in the range of 133 to 134 °C.
Turning to `COc1ccc(C(F)(F)F)cc1N1CCN(CC[C@H]2CC[C@H](NC(=O)CC#N)CC2)CC1` [Example 165, 2-Cyano-N-(4-{2-[4-(2-methoxy-5-trifluoromethylphenyl)piperazin-1-yl]ethyl}cyclohexyl)acetamide], the melting point turned out to be 183 °C.
The result for `N#CCC(=O)N[C@H]1CC[C@H](CCN2CCN(c3ccccc3Cl)CC2)CC1` [Example 131, N-(4-{2-[4-(2-Chlorophenyl)-piperazin-1-yl]ethyl}cyclohexyl)-2-cyanoacetamide] reads 194 °C.
With `CC(=O)CN1CCC(CCN2CCN(c3cc(Cl)c(Cl)cc3Cl)CC2)CC1.Cl.Cl`, the melting point stood at 261 °C.
`N#CCC(=O)N[C@H]1CC[C@H](CCN2CCN(c3ccc(F)cc3)CC2)CC1` [Example 241, 2-Cyano-N-(4-{2-[4-(4-fluoro-phenyl)piperazin-1-yl]ethyl}cyclohexyl)acetamide] gave a melting point of 209 °C.
Take `NC(=O)CCC(=O)N[C@H]1CC[C@H](CCN2CCN(c3ccccc3F)CC2)CC1` [Example 186, N-(4-{2-[4-(2-Fluorophenyl)piperazin-1-yl]ethyl}cyclohexyl)succinamide]: the melting point turned out to be 255 °C.
On to `CC(C)(C)c1cc(N2CCN(CC[C@H]3CC[C@H](NC(=O)CC#N)CC3)CC2)nc(C(C)(C)C)n1` [Example 111, 2-Cyano-N-(4-{2-[4-(2,6-di-tert-butylpyrimidin-4-yl)piperazin-1-yl]ethyl}cyclohexyl)acetamide trans/cis 65/35], for which the melting point worked out at 145 °C.
Turning to `O=C(CC(F)(F)F)N[C@H]1CC[C@H](CCN2CCN(c3ccc(F)cc3F)CC2)CC1` [Example 386, N-(4-{2-[4-(2,4-Difluorophenyl)piperazin-1-yl]ethyl}cyclohexyl)-3,3,3-trifluoropropanamide], the melting point came out at 184 °C.
The result for `N#CCCCC(=O)N[C@H]1CC[C@H](CCN2CC=C(c3cc(C(F)(F)F)ccc3F)CC2)CC1` reads 153 °C; that for `N#CCCCC(=O)N[C@H]1CC[C@H](CCN2CCN(c3ccc(Cl)c(Cl)c3F)CC2)CC1` [Example 520, 4-Cyano-N-(4-{2-[4-(3,4-dichloro-2-fluorophenyl)piperazin-1-yl]ethyl}cyclohexyl)butanamide], 199 °C; that for `N#CCCCC(=O)N[C@H]1CC[C@H](CCN2CCN(c3cc(C(F)(F)F)ccc3Cl)CC2)CC1` [Example 404, N-(4-{2-[4-(2-Chloro-5-trifluoromethylphenyl)piperazin-1-yl]ethyl}cyclohexyl)-4-cyanobutanamide], 168 °C.
For `COc1cccc(N2CCN(CCC3CCN(CC(C)=O)CC3)CC2)c1.Cl.Cl`, the melting point was 265 °C.
Turning to `CCCc1cccc(N2CCN(CC[C@H]3CC[C@H](NC(=O)CCCC#N)CC3)CC2)c1` [Example 312, 4-Cyano-N-(4-{2-[4-(3-propylphenyl)piperazin-1-yl]ethyl}cyclohexyl)butanamide], the melting point is 142 °C.
As for `COCCCC(=O)N[C@H]1CC[C@H](CCN2CCN(c3ccc(Cl)c(C(F)(F)F)c3)CC2)CC1` [Example 755, N-(4-{2-[4-(4-Chloro-3-trifluoromethylphenyl)piperazin-1-yl]ethyl}cyclohexyl)-4-methoxybutanamide], the figure is 171 °C; as for `Cc1ccc(N2CCN(CC[C@H]3CC[C@H](NC(=O)CC#N)CC3)CC2)cc1F` [Example 339, 2-Cyano-N-(4-{2-[4-(3-fluoro-4-methylphenyl)piperazin-1-yl]ethyl}cyclohexyl)acetamide], 208 °C; as for `COc1c(Cl)cccc1N1CCN(CCC2CCN(CC(C)=O)CC2)CC1.Cl.Cl`, 270 °C.

The melting point is the temperature, or range, at which the solid turns liquid.
